Legend:
[1] = tested on: Sweetpotato Whitefly-Crawler (Bemisia tabaci) (WF) (BEMITA); experiment: Insecticidal test for Sweetpotato Whitefly-Crawler in foliar spray assay on cotton plants; assay type: in vivo; settings: 216 h, 200 ppm foliar spray on cotton, graded after 9 days, Abbott-corrected % control, read-out: % Control (or Mortality) rating, WF
Procedure: Example B: Insecticidal Test for Sweetpotato Whitefly-Crawler (Bemisia tabaci) (WF) (BEMITA) in Foliar Spray Assay
Cotton plants (Gossypium hirsutum) grown in 3-inch pots, with 1 small (4-5 cm) true leaves, were used as test substrate. The plants were infested with 200-400 whitefly eggs 4-5 days prior to chemical application. Four pots with individual plants were used for each treatment. Test compounds (2 mg) were dissolved in 1 mL of acetone solvent, forming stock solutions of 2000 ppm test compound. The stock solutions were diluted 10× with 0.025% Tween 20 in H2O (diluents) to obtain the solution at 200 ppm test compound. A hand-held aspirator-type sprayer was used for spraying a solution to both sides of cotton leaves until runoff. Reference plants (solvent check) were sprayed with the diluent only containing 10% by volume of acetone solvent. Treated plants were held in a holding room for 9 days at approximately 25° C. and ambient relative humidity (RH) prior to grading. Evaluation was conducted by counting the number of live 3-4 nymph stage per plant under a microscope. Percent control was measured by using Abbott's correction formula (W. S. Abbott, “A Method of Computing the Effectiveness of an Insecticide,” J. Econ. Entomol. 18 (1925), pp. 265-267) as follows. Corrected % Control=100*(X−Y)/X • where • X=No. of live nymphs on solvent check plants and • Y=No. of live nymphs on treated plants.
Biological Data for Green Peach Aphid (MYZUPE) and Sweetpotato Whitefly-crawler (WF) (BEMITA)” (See Table Section).

[2] = tested on: Green Peach Aphid (Myzus persicae) (GPA) (MYZUPE); experiment: Bioassay for Green Peach Aphid, foliar spray on infested cabbage seedlings; assay type: in vivo; settings: 72 h, 200 ppm foliar spray on cabbage, graded after three days, Abbott-corrected % control, read-out: % Control (or Mortality) rating, GPA
Procedure: Example A: Bioassays for Green Peach Aphid (Myzus persicae) (GPA) (MYZUPE)
Cabbage seedlings grown in 3-inch pots, with 2-3 small (3-5 cm) true leaves, were used as test substrate. The seedlings were infested with 20-50 GPA (wingless adult and nymph stages) one day prior to chemical application. Four pots with individual seedlings were used for each treatment. Test compounds (2 mg) were dissolved in 2 mL of acetonemethanol (1:1) solvent, forming stock solutions of 1000 ppm test compound. The stock solutions were diluted 5× with 0.025% Tween 20 in H2O to obtain the solution at 200 ppm test compound. A hand-held aspirator-type sprayer was used for spraying a solution to both sides of […] leaves until runoff. Reference plants (solvent check) were sprayed with the diluent only containing 20% by volume of acetonemethanol (1:1) solvent. Treated plants were held in a holding room for three days at approximately 25° C. and ambient relative humidity (RH) prior to grading. Evaluation was conducted by counting the number of live aphids per plant under a microscope. Percent control was measured by using Abbott's correction formula (W. S. Abbott, “A Method of Computing the Effectiveness of an Insecticide,” J. Econ. Entomol. 18 (1925), pp. 265-267) as follows. Corrected % Control=100*(X−Y)/X • where • X=No. of live aphids on solvent check plants and • Y=No. of live aphids on treated plants The results are indicated in the table entitled “TABLE 2. Biological Data for Green Peach Aphid (MYZUPE) and Sweetpotato Whitefly-crawler (WF) (BEMITA)” (See Table Section).

Row | Structure (SMILES) | mortality at 200 ppm [1] [%] | mortality at 200 ppm [2] [%]
1 | C#CCN(C(=O)C(CSC(c1ccccc1)(c1ccccc1)c1ccccc1)=NOCC)c1cn(-c2cccnc2)nc1Cl [Compound F1, N-(3-chloro-1-(pyridin-3-yl)-1H-pyrazol-4-yl)-2-(ethoxyimino)-N-(prop-2-yn-1-yl)-3-(tritylthio)propanamide] | 0 to 80 | < 0
2 | C#CCN(C(=O)C(CSCC1CC1(F)F)=NOC)c1cn(-c2cccnc2)nc1Cl (stereo not shown) [Compound F2, N-(3-Chloro-1-(pyridin-3-yl)-1H-pyrazol-4-yl)-3-(((2,2-difluorocyclopropyl)methyl)thio)-2-(methoxyimino)-N-(prop-2-yn-1-yl)propanamide] | 80 to 100 | 80 to 100
3 | CCN(C(=O)C(CS(=O)(=O)CC1CC1(F)F)=NOC)c1cn(-c2cccnc2)nc1Cl (stereo not shown) [Compound F3] | 80 to 100 | 80 to 100
4 | C#CCN(C(=O)C(CSC(c1ccccc1)(c1ccccc1)c1ccccc1)=NOC)c1cn(-c2cccnc2)nc1Cl [Compound F4, N-(3-chloro-1-(pyridin-3-yl)-1H-pyrazol-4-yl)-2-(methoxyimino)-N-(prop-2-yn-1-yl)-3-(tritylthio)propanamide] | 0 to 80 | < 0
5 | CCN(C(=O)C(CSCC1CC1(F)F)=NOC)c1cn(-c2cccnc2)nc1Cl (stereo not shown) [Compound F5] | 80 to 100 | 80 to 100
6 | C#CCN(C(=O)C(CSCC(F)(F)F)=NOC)c1cn(-c2cccnc2)nc1Cl [Compound F6, N-(3-Chloro-1-(pyridin-3-yl)-1H-pyrazol-4-yl)-2-(methoxyimino)-N-(prop-2-yn-1-yl)-3-((2,2,2-trifluoroethyl)thio)propanamide] | 80 to 100 | 80 to 100
7 | C#CCN(C(=O)C(CS)=NOCC)c1cn(-c2cccnc2)nc1Cl [Compound F7, N-(3-Chloro-1-(pyridin-3-yl)-1H-pyrazol-4-yl)-2-(ethoxyimino)-3-mercapto-N-(prop-2-yn-1-yl)propanamide] | < 0 | 80 to 100
8 | CCN(C(=O)C(CS(=O)(=O)CCC(F)(F)F)=NOC)c1cn(-c2cccnc2)nc1Cl [Compound F8, N-(3-Chloro-1-(pyridin-3-yl)-1H-pyrazol-4-yl)-N-ethyl-2-(methoxyimino)-3-((3,3,3-trifluoropropyl)sulfonyl)propanamide] | 80 to 100 | 80 to 100
9 | CCN(C(=O)C(CS)=NOC)c1cn(-c2cccnc2)nc1Cl [Compound F9, N-(3-Chloro-1-(pyridin-3-yl)-1H-pyrazol-4-yl)-N-ethyl-3-mercapto-2-(methoxyimino)propanamide] | 0 to 80 | 80 to 100
10 | CCON=C(CSCC1CC1(F)F)C(=O)N(CC)c1cn(-c2cccnc2)nc1Cl (stereo not shown) [Compound F11, N-(3-Chloro-1-(pyridin-3-yl)-1H-pyrazol-4-yl)-3-(((2,2-difluorocyclopropyl)methyl)thio)-2-(ethoxyimino)-N-ethylpropanamide] | 80 to 100 | 80 to 100
11 | CCON=C(CSC(c1ccccc1)(c1ccccc1)c1ccccc1)C(=O)N(CC)c1cn(-c2cccnc2)nc1Cl [Compound F12, N-(3-chloro-1-(pyridin-3-yl)-1H-pyrazol-4-yl)-2-(ethoxyimino)-N-ethyl-3-(tritylthio)propanamide] | 80 to 100 | 0 to 80
12 | C=CCON=C(CSC(c1ccccc1)(c1ccccc1)c1ccccc1)C(=O)N(CC)c1cn(-c2cccnc2)nc1Cl [Compound F13, 2-((Allyloxy)imino)-N-(3-chloro-1-(pyridin-3-yl)-1H-pyrazol-4-yl)-N-ethyl-3-(tritylthio)propanamide] | 0 to 80 | 0 to 80
13 | CCN(C(=O)C(CSCCC(F)(F)F)=NOC)c1cn(-c2cccnc2)nc1Cl [Compound F14, N-(3-chloro-1-(pyridin-3-yl)-1H-pyrazol-4-yl)-N-ethyl-2-(methoxyimino)-3-((3,3,3-trifluoropropyl)thio)propanamide] | 80 to 100 | 80 to 100
14 | CCON=C(CSCCCC(F)(F)F)C(=O)N(CC)c1cn(-c2cccnc2)nc1Cl [Compound F15, N-(3-Chloro-1-(pyridin-3-yl)-1H-pyrazol-4-yl)-2-(ethoxyimino)-N-ethyl-3-((4,4,4-trifluorobutyl)thio)propanamide] | 80 to 100 | 80 to 100
15 | C#CCN(C(=O)C(CSCCC(F)(F)F)=NOCC)c1cn(-c2cccnc2)nc1Cl [Compound F16, N-(3-Chloro-1-(pyridin-3-yl)-1H-pyrazol-4-yl)-2-(ethoxyimino)-N-(prop-2-yn-1-yl)-3-((3,3,3-trifluoropropyl)thio)propanamide] | 80 to 100 | 80 to 100
16 | CCON=C(CSCC(F)(F)F)C(=O)N(CC)c1cn(-c2cccnc2)nc1Cl [Compound F17, N-(3-Chloro-1-(pyridin-3-yl)-1H-pyrazol-4-yl)-2-(ethoxyimino)-N-ethyl-3-((2,2,2-trifluoroethyl)thio)propanamide] | 80 to 100 | 80 to 100
17 | CCN(C(=O)C(C[S+]([O-])CCC(F)(F)F)=NOC)c1cn(-c2cccnc2)nc1Cl (stereo not shown) [Compound F18, N-(3-Chloro-1-(pyridin-3-yl)-1H-pyrazol-4-yl)-N-ethyl-2-(methoxyimino)-3-((3,3,3-trifluoropropyl)sulfinyl)propanamide] | 80 to 100 | 80 to 100
18 | C#CCN(C(=O)C(CSCCCC(F)(F)F)=NOC)c1cn(-c2cccnc2)nc1Cl [Compound F19, N-(3-Chloro-1-(pyridin-3-yl)-1H-pyrazol-4-yl)-2-(methoxyimino)-N-(prop-2-yn-1-yl)-3-((4,4,4-trifluorobutyl)thio)propanamide] | 80 to 100 | 80 to 100
19 | CCON=C(CS)C(=O)N(CC)c1cn(-c2cccnc2)nc1Cl [Compound F20, N-(3-chloro-1-(pyridin-3-yl)-1H-pyrazol-4-yl)-2-(ethoxyimino)-N-ethyl-3-mercaptopropanamide] | 0 to 80 | 80 to 100
20 | C#CCN(C(=O)C(CSCCC(F)(F)F)=NOC)c1cn(-c2cccnc2)nc1Cl [Compound F21, N-(3-Chloro-1-(pyridin-3-yl)-1H-pyrazol-4-yl)-2-(methoxyimino)-N-(prop-2-yn-1-yl)-3-((3,3,3-trifluoropropyl)thio)propanamide] | 80 to 100 | 80 to 100
21 | CCN(C(=O)C(C[S+]([O-])CC1CC1(F)F)=NOC)c1cn(-c2cccnc2)nc1Cl (stereo not shown) [Compound F22] | 80 to 100 | 80 to 100
22 | C#CCN(C(=O)C(CS)=NOC)c1cn(-c2cccnc2)nc1Cl [Compound F23, N-(3-Chloro-1-(pyridin-3-yl)-1H-pyrazol-4-yl)-3-mercapto-2-(methoxyimino)-N-(prop-2-yn-1-yl)propanamide] | 0 to 80 | 0 to 80
23 | CCON=C(CSCCC(F)(F)F)C(=O)N(CC)c1cn(-c2cccnc2)nc1Cl [Compound F24, N-(3-chloro-1-(pyridin-3-yl)-1H-pyrazol-4-yl)-2-(ethoxyimino)-N-ethyl-3-((3,3,3-trifluoropropyl)thio)propanamide] | 80 to 100 | 80 to 100

Source: patent US9497966B2, “Pesticidal compositions and related methods” (DOW AGROSCIENCES LLC, priority 2013, dated 2016)
